Source: US12138256B2, “Treatment of cardiopulmonary disorders” (Bayer Aktiengesellschaft, priority 2021, dated 2024)
Where “and” joins values, the source holds several entries; their conditions need not be identical. Equal values may be shown once. Read-outs that look alike come from different tables or passages of the source.

Columns and labels:
[1] = Caco-2 permeability test (C-5.1); format: in vitro ADME, human; details: human, Caco-2 (2 μM)
Description: The in vitro permeation of a test compound across a Caco-2 cell monolayer is a well-established assay system to predict the permeability from the gastro-intestinal tract (1). The permeability of the compounds of the present invention in such Caco-2 cells was determined as described below:
Human caco-2 cells were seeded on 24-well insert plates and were allowed to grow for 14-16 days. For permeability studies, the test compounds were dissolved in DMSO and diluted to the final test concentration of 2 μM with transport buffer [Hanks' Buffered Salt Solution, Gibco/Invitrogen, further supplemented with glucose and HEPES]. For determination of the apical to basolateral permeability (PappA-B), the test compound solution was added to the apical side of the cell monolayer and transport buffer to the basolateral side of the monolayer; for determination of the basolateral to apical permeability (PappB-A), the test compound solution was added to the basolateral side of the cell monolayer and transport buffer to the apical side of the monolayer. Samples were taken from the donor compartment at the beginning of the experiment to confirm mass balance. After an incubation of 2 h at 37° C., samples were taken from both compartments. Samples were analyzed by LC-MS/MS, and the apparent permeability coefficients were calculated. Lucifer Yellow permeability was assayed for each cell monolayer to ensure cell monolayer integrity, and the permeability of Atenolol (low permeability marker) and Sulfasalazine (marker for active excretion) was determined for each batch as quality control.

[2] = Protein binding via Transil assay, human plasma; format: in vitro ADME; details: Human (male) plasma, Transil assay; read-out: Fraction unbound
Source text: (§1) The distribution of a test substance between Transil® (phosphatidylcholine lipid bilayers immobilized on silica beads) and plasma is a characteristic feature of any pharmaceutical compound and is dependent on its extent of binding to plasma proteins. By comparing the distribution between Transil® and buffer with the distribution between Transil® and plasma of any species of interest, the unbound fraction in the plasma of the respective animal species can be calculated in vitro. The respective plasma and buffer concentrations were determined via a radioactivity analysis. A detailed description of the method and its validation was published by Schuhmacher et al. (2).

[3] = Protein binding via Transil assay, rat plasma; format: in vitro ADME; details: Rat Wistar plasma, Transil assay
Source text: as §1

[4] = Protein binding via Transil assay, monkey plasma; format: in vitro ADME; details: Monkey Cynomolgus plasma
Source text: as §1

[5] = Protein binding via Transil assay, plasma of all species investigated (C-5.2); format: in vitro ADME; details: Wistar (rat), Beagle (dog), plasma (Transil beads), read-out: free fractions
Source text: as §1

[6] = system: rabbit saphenous artery; experiment: Vasorelaxant effect in vitro: phenylephrine-induced contraction of rabbit saphenous artery rings (C-1.1); details: Oryctolagus cuniculus, read-out: IC50, inhibition of phenylephrine induced contractions of rabbit saphenous artery rings
Description: Rabbits were anaesthetized and sacrificed by intravenous injection of thiopental sodium (about 50 mg/kg) and exsanguinated. The saphenous artery was removed and divided into rings 3 mm wide. The rings were mounted singly on in each case a pair of triangular hooks open at the end and made of 0.3 mm-thick special wire (Remanium®). Each ring was placed under an initial tension in 5 ml organ baths with Krebs-Henseleit solution which was at 37° C., was gassed with carbogen and had the following composition: NaCl 119 mM; KCl 4.8 mM; CaCl2)×2 H2O 1 mM; MgSO4×7 H2O 1.4 mM; KH2PO41.2 mM; NaHCO325 mM; glucose 10 mM; bovine serum albumin 0.001%. The force of contraction was detected with Statham UC2 cells, amplified and digitized via A/D converters (DAS-1802 HC, Keithley Instruments, Munich) and recorded in parallel on chart recorders. Contractions were induced by addition of phenylephrine.
The concentration necessary to reduce the contraction reached in the preceding control by 50% was calculated from this (IC50). The standard application volume was 5 μl. The proportion of DMSO in the bath solution corresponded to 0.1%.

[7] = system: anesthetized PAH minipigs; experiment: PAH minipig model: intratracheal application of dry powder formulations and different hydrates (PennCentury insufflator); format: in vivo, Göttingen minipig; details: for BP (mean) / PAP(mean) / BP % changes vs. prevalues / PAP % changes vs. prevalues: 375 μg/kg i.t.; for BP (mean) / PAP(mean): absolute values; for BP % changes vs. prevalues / PAP % changes vs. prevalues: each animal
Source text: After characterization of the effects of comparative example 11 after nebulization of compound solutions, in a further step the effects of crystalline forms of comparative example 11, e.g. sesquihydrate, e.g. example 6e on PAP and BP after inhaled application of different dry powder lactose formulations (table C2.1.8) were studied in anesthetized PAH minipigs.
As reference pure Lactose vehicle was applied in the beginning of each experiment.

[8] = Stability of the crystalline form during micronization (spiral jet mill, XRPD); format: physicochemical
Source text: Generally no amorphization even partial nor form conversion should happen during the necessary micronization step.
The corresponding batches (examples 8a-8d) were micronized using a 50 mm spiral jet mill and pressurized nitrogen with the following parameters (see table 16b).
The corresponding batches were micronized using a 100 mm spiral jet mill and pressurized nitrogen with the following parameters (see table 16c).

O=C(O)CCCCN(CCc1ccccc1OCc1ccc(CCc2ccccc2)cc1)Cc1ccc(C(=O)O)cc1 [comparative example 1, 4-[((4Carboxybutyl)-{2-[(4-phenethylbenzyl)oxy]phenethyl}amino)methyl]benzoic acid]
efflux ratio at 2 h, 2 μM [1]: 20 ± 3.5
Papp A→B at 2 h, 2 μM ([1]; concentration per compound 2.0 or 2.4 μM, read-out: Papp A-B (mean +/− SD)): 3.1 ± 0.39 ×10⁻⁶ cm/s
Papp B→A at 2 h, 2 μM ([1]; concentration per compound 2.0 or 2.4 μM, read-out: Papp B-A (mean +/− SD)): 63.1 ± 7.1 ×10⁻⁶ cm/s
fraction unbound [2]: 0.00392
fraction unbound [3]: 0.00351
fraction unbound [4]: 0.000799
fraction unbound [5]: < 0.01
IC50 ([6]; 0.5 h, 30 min after incubation): 17 nM
IC50 ([6]; preincubation period of 2.5 h): 3 nM

O=C(O)c1ccc(CCN(CCc2ccccc2OCc2ccc(-c3ccc(C(F)(F)F)cc3)cc2Cl)[C@H]2CCCc3nc(C(=O)O)ccc32)cc1 [example 2, (5S)-{[2-(4-Carboxyphenyl)ethyl][2-(2-{[3-chloro-4′-(trifluoromethyl)biphenyl-4-yl]methoxy}phenyl)-ethyl]amino}-5,6,7,8-tetrahydroquinoline-2-carboxylic acid]
efficacy with regard to PAP reduction as well as systemic BP reduction ([7]; 1.5 mg/4 kg (=375 μg/kg) intratracheally, micronized): comparable efficacy
BP (mean) ([7]; time 0): 109 mmHg and 127 mmHg and 136 mmHg
PAP(mean) ([7]; time 0): 35.8 mmHg and 38.7 mmHg and 39.7 mmHg
BP (mean) ([7]; time 10): 110 mmHg and 126 mmHg and 135 mmHg
PAP(mean) ([7]; time 10): 35.8 mmHg and 38.7 mmHg and 37.1 mmHg
BP (mean) ([7]; time 20): 117 mmHg and 128 mmHg and 139 mmHg
PAP(mean) ([7]; time 20): 38.9 mmHg and 38.2 mmHg and 40.2 mmHg
BP (mean) ([7]; time 30): 121 mmHg and 128 mmHg and 139 mmHg
PAP(mean) ([7]; time 30): 39.8 mmHg and 38.6 mmHg and 40.0 mmHg
BP (mean) ([7]; time 40): 123 mmHg and 127 mmHg and 137 mmHg
PAP(mean) ([7]; time 40): 40.4 mmHg and 39.0 mmHg and 40.7 mmHg
BP (mean) ([7]; time 50): 120 mmHg and 127 mmHg and 135 mmHg
PAP(mean) ([7]; time 50): 39.7 mmHg and 39.2 mmHg and 40.2 mmHg
BP % changes vs. prevalues ([7]; time 50): 99.1% and 100.1% and 100.0%
PAP % changes vs. prevalues ([7]; time 50): 99.1% and 99.2% and 98.5%
BP (mean) ([7]; time 60): 121 mmHg and 127 mmHg and 136 mmHg
PAP(mean) ([7]; time 60): 39.9 mmHg and 39.2 mmHg and 40.8 mmHg
BP % changes vs. prevalues ([7]; time 60): 99.9% and 100.1% and 100.7%
PAP % changes vs. prevalues ([7]; time 60): 99.7% and 99.3% and 99.8%
BP (mean) ([7]; time 70): 124 mmHg and 126 mmHg and 137 mmHg
PAP(mean) ([7]; time 70): 39.1 mmHg and 36.0 mmHg and 37.2 mmHg
BP % changes vs. prevalues ([7]; time 70): 102.4% and 99.3% and 101.4%
PAP % changes vs. prevalues ([7]; time 70): 97.7% and 91.1% and 91.0%
BP (mean) ([7]; time 80): 123 mmHg and 124 mmHg and 135 mmHg
PAP(mean) ([7]; time 80): 39.1 mmHg and 36.1 mmHg and 35.9 mmHg
BP % changes vs. prevalues ([7]; time 80): 101.6% and 97.7% and 100.0%
PAP % changes vs. prevalues ([7]; time 80): 97.7% and 91.3% and 88.0%
BP (mean) ([7]; time 90): 122 mmHg and 125 mmHg and 134 mmHg
PAP(mean) ([7]; time 90): 37.9 mmHg and 35.2 mmHg and 34.5 mmHg
BP % changes vs. prevalues ([7]; time 90): 100.7% and 98.5% and 99.2%
PAP % changes vs. prevalues ([7]; time 90): 94.7% and 89.1% and 84.5%
BP (mean) ([7]; time 100): 122 mmHg and 124 mmHg and 132 mmHg
PAP(mean) ([7]; time 100): 36.8 mmHg and 33.2 mmHg and 32.7 mmHg
BP % changes vs. prevalues ([7]; time 100): 100.7% and 97.7% (2×)
PAP % changes vs. prevalues ([7]; time 100): 91.8% and 84.0% and 80.0%
BP (mean) ([7]; time 110): 122 mmHg and 125 mmHg and 133 mmHg
PAP(mean) ([7]; time 110): 35.5 mmHg and 31.9 mmHg and 31.2 mmHg
BP % changes vs. prevalues ([7]; time 110): 100.7% and 98.5% (2×)
PAP % changes vs. prevalues ([7]; time 110): 88.8% and 80.9% and 76.3%
BP (mean) ([7]; time 120): 121 mmHg and 125 mmHg and 132 mmHg
PAP(mean) ([7]; time 120): 34.8 mmHg and 30.2 mmHg and 29.8 mmHg
BP % changes vs. prevalues ([7]; time 120): 99.9% and 98.5% and 97.7%
PAP % changes vs. prevalues ([7]; time 120): 87.0% and 76.6% and 73.0%
BP (mean) ([7]; time 130): 120 mmHg and 124 mmHg and 131 mmHg
PAP(mean) ([7]; time 130): 34.2 mmHg and 29.7 mmHg and 29.3 mmHg
BP % changes vs. prevalues ([7]; time 130): 99.1% and 97.7% and 97.0%
PAP % changes vs. prevalues ([7]; time 130): 85.5% and 75.2% and 71.7%
BP (mean) ([7]; time 140): 119 mmHg and 125 mmHg and 131 mmHg
PAP(mean) ([7]; time 140): 34.3 mmHg and 29.3 mmHg and 28.6 mmHg
BP % changes vs. prevalues ([7]; time 140): 98.3% and 98.5% and 97.0%
PAP % changes vs. prevalues ([7]; time 140): 85.6% and 74.3% and 70.0%
BP (mean) ([7]; time 150): 117 mmHg and 124 mmHg and 130 mmHg
PAP(mean) ([7]; time 150): 33.7 mmHg and 28.4 mmHg
BP % changes vs. prevalues ([7]; time 150): 96.6% and 97.7% and 96.3%
PAP % changes vs. prevalues ([7]; time 150): 84.1% and 71.9% and 69.4%
BP (mean) ([7]; time 160): 117 mmHg
BP % changes vs. prevalues ([7]; time 160): 96.6% and 95.3% and 96.3%
PAP % changes vs. prevalues ([7]; time 160): 84.1% and 70.4% and 68.1%
BP % changes vs. prevalues ([7]; time 170): 95.8% and 94.5% and 95.5%
PAP % changes vs. prevalues ([7]; time 170): 83.8% and 69.8% and 68.5%
BP % changes vs. prevalues ([7]; time 180): 94.1% and 92.2% and 97.7%
PAP % changes vs. prevalues ([7]; time 180): 83.8% and 68.7% and 68.9%
BP % changes vs. prevalues ([7]; time 190): 92.5% and 91.4% and 98.5%
PAP % changes vs. prevalues ([7]; time 190): 83.9% and 67.7% and 69.3%
BP % changes vs. prevalues ([7]; time 200): 90.0% and 90.6% and 97.0%
PAP % changes vs. prevalues ([7]; time 200): 83.7% and 67.9% and 68.5%
BP % changes vs. prevalues ([7]; time 210): 90.8%
PAP % changes vs. prevalues ([7]; time 210): 83.4% and 66.5% and 67.7%
BP (mean) ([7]; time −10): 116 mmHg and 126 mmHg and 139 mmHg
PAP(mean) ([7]; time −10): 37.9 mmHg and 37.8 mmHg and 39.4 mmHg
stability of the form under micronization [8]: monohydrate II with partial amorphization
stability of the form under micronization ([8]; listed as monohydrate II): partial amorphization occurred under several conditions

O=C(O)c1ccc(CCN(CCc2ccccc2OCc2ccc(-c3ccc(C(F)(F)F)cc3)cc2Cl)[C@H]2CCCc3nc(C(=O)O)ccc32)cc1 [example 4, (5S)-{[2-(4-Carboxyphenyl)ethyl][2-(2-{[3-chloro-4′-(trifluoromethyl)biphenyl-4-yl]methoxy}phenyl)-ethyl]amino}-5,6,7,8-tetrahydroquinoline-2-carboxylic acid]
stability of the form under micronization ([8]; listed as monohydrate I): stable under micronization conditions
